Measured values from ChEMBL document CHEMBL5096229, “A 1,2,3-Triazole Derivative of Quinazoline Exhibits Antitumor Activity by Tethering RNF168 to SQSTM1/P62” (J Med Chem, 2022).
Calls of active or inactive are those of the source. The calls are words filed in the database; no cut-off is given here.

Key:
HCT-116 [1] = experiment: Induction of apoptosis in human HCT-116 cells at 5 to 10 uM measured after 24 hrs by annexinV-FITC/propidium iodide staining based flow cytometry analysis; format: functional, cell-based; settings: dose 5-10 µM
HCT-116 [2] = experiment: Cytotoxicity against human HCT-116 cells assessed as reduction in cell viability incubated for 72 hrs by MTS assay; format: functional, cell-based; settings: HCT-116, 72 h
A549 = experiment: Cytotoxicity against human A549 cells assessed as reduction in cell viability incubated for 72 hrs by MTS assay; format: functional, cell-based; settings: A549, 72 h
MGC-803 = experiment: Cytotoxicity against human MGC-803 cells assessed as reduction in cell viability incubated for 72 hrs by MTS assay; format: functional, cell-based; settings: MGC-803, 72 h
MDA-MB-231 = experiment: Cytotoxicity against human MDA-MB-231 cells assessed as reduction in cell viability incubated for 72 hrs by MTS assay; format: functional, cell-based; settings: MDA-MB-231, 72 h
HepG2 = experiment: Cytotoxicity against human HepG2 cells assessed as reduction in cell viability incubated for 72 hrs by MTS assay; format: functional, cell-based; settings: HepG2, 72 h
HeLa = experiment: Cytotoxicity against human HeLa cells assessed as reduction in cell viability incubated for 72 hrs by MTS assay; format: functional, cell-based
MCF7 = experiment: Cytotoxicity against human MCF7 cells assessed as reduction in cell viability incubated for 72 hrs by MTS assay; format: functional, cell-based; settings: MCF7, 72 h
U2OS = experiment: Cytotoxicity against human U2OS cells assessed as reduction in cell viability incubated for 72 hrs by MTS assay; format: functional, cell-based
[3] = Cytotoxicity against human MCF-10A cells assessed as reduction in cell viability incubated for 72 hrs by MTS assay; format: toxicity, cell-based
A-375 = experiment: Cytotoxicity against human A-375 cells assessed as reduction in cell viability incubated for 72 hrs by MTS assay; format: functional, cell-based; settings: A-375, 72 h
[4] = target: T1, E3 ubiquitin-protein ligase RNF168 (Homo sapiens, UniProt Q8IYW5); experiment: Binding affinity to RNF168 in human HCT-116 cells lysates at 10 uM by pull-down based immunoblot assay; format: subcellular; settings: filed as activator
Sequestosome-1 = Sequestosome-1 (Homo sapiens, UniProt Q13501); experiment: Binding affinity to P62 in human HCT-116 cells lysates at 10 uM incubated for 12 hrs by pull-down based immunoblot assay; format: subcellular; settings: filed as activator
Bacteria [5] = experiment: Binding affinity to bacteria produced GST-tagged RNF168 at 10 uM by pull-down based immunoblot assay; settings: filed as activator
Bacteria [6] = experiment: Binding affinity to bacteria produced His tagged-P62 at 10 uM incubated for 12 hrs by pull-down based immunoblot assay; settings: filed as activator
[7] = target: T1, E3 ubiquitin-protein ligase RNF168; experiment: Binding affinity to RNF168 (unknown origin) by MST assay
HCT-116 [8] = experiment: Induction of autophagy in human HCT-116 cells assessed as increase in p62 protein level measured after 12 to 24 hrs by Western blot analysis; format: functional, cell-based; settings: time 12-24 hrs
HCT-116 [9] = experiment: Induction of autophagy in human HCT-116 cells assessed as increase in LC-3B puncta level measured after 12 to 24 hrs by immunofluorescence analysis; format: functional, cell-based; settings: time 12-24 hrs
HCT-116 [10] = experiment: Induction of cell cycle arrest in human HCT-116 cells assessed as accumulation at S phase at 0.34 uM after 24 hrs by propidium iodide-staining based flow cytometry (reference value: 17.17 +/- 0.18%); format: functional
HCT-116 [11] = experiment: Induction of cell cycle arrest in human HCT-116 cells assessed as accumulation at G0/G1 phase at 0.34 uM after 24 hrs by propidium iodide-staining based flow cytometry (reference value: 58.01 +/- 1.77%); format: functional
HCT-116 [12] = experiment: Induction of cell cycle arrest in human HCT-116 cells assessed as accumulation at G2/M phase at 0.34 uM after 24 hrs by propidium iodide-staining based flow cytometry (reference value: 23.25 +/- 1.38%); format: functional
HCT-116 [13] = experiment: Induction of cell cycle arrest in human HCT-116 cells assessed as accumulation at G0/G1 phase at IC50 concentration after 24 hrs by propidium iodide-staining based flow cytometry (reference value: 58.01 +/- 1.77%); format: functional
HCT-116 [14] = experiment: Induction of cell cycle arrest in human HCT-116 cells assessed as accumulation at G2/M phase at IC50 concentration after 24 hrs by propidium iodide-staining based flow cytometry (reference value: 23.25 +/- 1.38%); format: functional
HCT-116 [15] = experiment: Induction of cell cycle arrest in human HCT-116 cells assessed as accumulation at S phase at IC50 concentration after 24 hrs by propidium iodide-staining based flow cytometry (reference value: 17.17 +/- 0.18%); format: functional

T1 sequence (Q8IYW5 whole entry): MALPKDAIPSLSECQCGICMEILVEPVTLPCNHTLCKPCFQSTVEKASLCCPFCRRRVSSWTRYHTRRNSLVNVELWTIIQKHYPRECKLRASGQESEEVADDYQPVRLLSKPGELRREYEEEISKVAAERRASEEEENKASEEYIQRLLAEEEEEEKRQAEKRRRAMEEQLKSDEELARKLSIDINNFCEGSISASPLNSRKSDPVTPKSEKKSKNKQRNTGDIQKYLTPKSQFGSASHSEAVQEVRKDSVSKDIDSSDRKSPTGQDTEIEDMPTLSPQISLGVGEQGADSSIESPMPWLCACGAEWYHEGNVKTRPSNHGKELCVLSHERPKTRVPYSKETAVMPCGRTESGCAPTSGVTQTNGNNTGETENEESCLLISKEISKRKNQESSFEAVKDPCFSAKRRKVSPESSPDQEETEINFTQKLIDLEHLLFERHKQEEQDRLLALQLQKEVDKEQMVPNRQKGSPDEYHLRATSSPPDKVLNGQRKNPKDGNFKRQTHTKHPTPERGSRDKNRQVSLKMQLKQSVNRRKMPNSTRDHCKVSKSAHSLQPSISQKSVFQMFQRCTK
Sequence of Sequestosome-1 (Q13501 whole entry): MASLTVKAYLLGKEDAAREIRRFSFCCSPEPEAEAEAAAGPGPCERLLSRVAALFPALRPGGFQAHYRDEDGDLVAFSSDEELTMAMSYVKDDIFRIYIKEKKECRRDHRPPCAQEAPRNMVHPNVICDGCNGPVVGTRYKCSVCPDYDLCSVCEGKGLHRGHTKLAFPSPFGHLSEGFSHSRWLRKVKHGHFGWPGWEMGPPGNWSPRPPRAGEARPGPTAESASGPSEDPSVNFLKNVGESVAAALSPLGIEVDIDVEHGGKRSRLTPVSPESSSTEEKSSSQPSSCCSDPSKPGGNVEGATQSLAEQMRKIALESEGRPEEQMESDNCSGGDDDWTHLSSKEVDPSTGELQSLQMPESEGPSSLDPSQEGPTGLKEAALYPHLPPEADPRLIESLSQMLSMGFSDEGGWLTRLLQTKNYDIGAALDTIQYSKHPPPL

| SMILES | IC50 (HCT-116 [2]) [µM] | IC50 (A549) [µM] | further results |
| --- | --- | --- | --- |
| CC[C@@]1(O)C(=O)OCc2c1cc1n(c2=O)Cc2cc3ccccc3nc2-1 |  |  | Activity (HCT-116 [1]): Active |
| COc1ccc(-n2cc(-c3ccc4nc(N)nc(N)c4c3)nn2)cc1 | 2.44 | > 20 |  |
| Nc1nc(N)c2cc(-c3cn(-c4ccc(Br)cc4)nn3)ccc2n1 | 1.69 | 2.14 |  |
| COc1cc(-c2cn(-c3ccc4nc(N)nc(N)c4c3)nn2)cc(OC)c1OC | 0.87 | 1.88 |  |
| COc1cc(-n2cc(-c3ccc4nc(N)[nH]c(=O)c4c3)nn2)cc(OC)c1OC | > 20 | > 20 |  |
| COc1ccc(-n2cc(-c3ccc4nc(N)nc(N)c4c3)nn2)cc1O | > 20 | > 20 |  |
| Cc1nc2ccc(CN(C)c3ccc(C(=O)N[C@@H](CCC(=O)O)C(=O)O)s3)cc2c(=O)[nH]1 [RALTITREXED] | 0.076 | 0.81 | IC50 (MGC-803): 9.52 µM; IC50 (MDA-MB-231): > 20 µM; IC50 (HepG2): 9.63 µM; IC50 (HeLa): 5.51 µM; IC50 (MCF7): 10.9 µM; IC50 (U2OS): > 20 µM; IC50 at 72 h [3]: > 20 µM; IC50 (A-375): 4.68 µM |
| Nc1nc(N)c2cc(-c3cn(-c4ccc(F)cc4F)nn3)ccc2n1 | 3.29 | 3.74 |  |
| N#Cc1ccc(-n2cc(-c3ccc4nc(N)nc(N)c4c3)nn2)cc1 | > 20 | > 20 |  |
| Nc1nc(N)c2cc(-c3cn(-c4ccc(O)cc4)nn3)ccc2n1 | > 20 | > 20 |  |
| COc1cccc(-n2cc(-c3ccc4nc(N)nc(N)c4c3)nn2)c1 | 2.75 | 3.27 |  |
| Nc1nc(N)c2cc(-c3cn(-c4ccc(F)cc4)nn3)ccc2n1 | 2.89 | 8.7 |  |
| Nc1nc(N)c2cc(-c3cn(-c4ccccc4)nn3)ccc2n1 | 1.93 | 2.18 |  |
| Nc1nc(N)c2cc(-c3cn(-c4ccc([N+](=O)[O-])cc4)nn3)ccc2n1 | 9.86 | 7.83 |  |
| COc1cc(-n2cc(-c3ccc4nc(N)nc(NCCCCCCNC(=O)CCCC[C@@H]5SC[C@@H]6NC(=O)N[C@@H]65)c4c3)nn2)cc(OC)c1OC |  |  | Activity [4]: Active; Activity (Sequestosome-1): Active; Activity (Bacteria [5]): Active; Activity (Bacteria [6]): Active; Kd [7]: 6.82 µM |
| COc1ccc(-n2cc(-c3ccc4nc(N)nc(N)c4c3)nn2)c([N+](=O)[O-])c1 | 8.04 | 8.4 |  |
| COc1cc(-n2cc(-c3ccc4nc(C)[nH]c(=O)c4c3)nn2)cc(OC)c1OC | > 20 | > 20 |  |
| COc1cc(OC)cc(-n2cc(-c3ccc4nc(N)nc(N)c4c3)nn2)c1 | 1.34 | 4.74 |  |
| CCN(CC)CCCC(C)Nc1ccnc2cc(Cl)ccc12 (stereo not drawn) |  |  | Activity (HCT-116 [8]): Active; Activity (HCT-116 [9]): Active |
| Nc1nc(N)c2cc(-c3cn(-c4ccc(Cl)cc4)nn3)ccc2n1 | 2.15 | 7.61 |  |
| COC(=O)Nc1nc2cc(C(=O)c3cccs3)ccc2[nH]1 [NOCODAZOLE] |  |  | Activity (HCT-116 [10]): 7.11%; Activity (HCT-116 [11]): 2.92%; Activity (HCT-116 [12]): 93.17% |
| Nc1nc(N)c2cc(-n3cc(-c4ccccc4)nn3)ccc2n1 | 5.46 | 6.65 |  |
| COc1ccc(-n2cc(-c3ccc4nc(N)nc(N)c4c3)nn2)c(OC)c1 | 5.35 | > 20 |  |
| COc1ccc(OC)c(-n2cc(-c3ccc4nc(N)nc(N)c4c3)nn2)c1 | 3.09 | 8.36 |  |
| Cc1ccc(-n2cc(-c3ccc4nc(N)nc(N)c4c3)nn2)cc1 | 2.46 | 1.78 |  |
| O=c1[nH]cc(F)c(=O)[nH]1 [FLUOROURACIL] | 4.89 | 4.52 | Activity (HCT-116 [13]): 34.65%; IC50 (MGC-803): 7.54 µM; Activity (HCT-116 [14]): 11.89%; IC50 (MDA-MB-231): 10.2 µM; IC50 (HeLa): > 20 µM; IC50 (MCF7): > 20 µM; IC50 (U2OS): > 20 µM; IC50 at 72 h [3]: > 20 µM; Activity (HCT-116 [15]): 65.12%; IC50 (A-375): 3.52 µM |
